In patent publication US6156700A, “3-(1,2-Benzisothiazol- and isoxazol-5-yl)-2,4(1H,3H)-pyrimidinedione or thione and 3-(1,2-benzisothiazol- and isoxazol-5-yl)-4(3H)-pyrimidinone or thione herbicidal agents” (American Cyanmid Company, priority 1998, dated 2000):

Experiments:
[1] = test system: Rice, Tebonnet, Oryza sativa; assay: Postemergence herbicidal evaluation, ORYSAT; format: in vivo, (L.) Tebonnet; details: 0.2500 kg/ha
Summary of the method: (§1)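 Seedlings grown about two weeks were sprayed with compound in 50/50 acetone/water containing 0.5% TWEEN 20 at rates equivalent to about 0.0157–0.500 kg/ha, nozzle at 40 psi. Injury was rated visually 0–9 versus control four to five weeks after treatment; replicate tests averaged.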

[2] = test system: CYPIR Rice Flatsedge; assay: Postemergence weed control, flooded paddy (Table IV); format: in vivo, Cyperus iria; set-up: scale not given here
Description: (§2) Plastic containers containing weeds which are 3 to 5 cm tall and rice seedlings at the 1.5 to 2.5 leaf stage are flooded with water. The water is maintained at 1.5 to 3 cm above the soil surface for the duration of the experiment. Test compounds are applied as aqueous/acetone mixtures 50/50 v/v directly into the flood water to provide the equivalent of about 0.0313 to 0.500 kg/ha of active ingredient. The treated containers are placed on greenhouse benches and cared for in accordance with conventional greenhouse procedures. Three to four weeks after treatment, the test is terminated and each container is examined and herbicidal effect rated according to the rating system provided in Example 185. The compounds evaluated are reported by compound number given in Example 185.

[3] = test system: CYPSE Flatsedge; assay: Preemergence weed control, flooded paddy (Table III); format: in vivo, Cyperus serotinus; set-up: scale not given here
Experimental: Preemergence herbicidal activity under flooded paddy conditions is determined as follows: plant seeds or propagating organs are planted in the top 0.5 cm of silt loam soil in 32 oz. plastic containers with a diameter of 10.5 cm and no drainage holes. Water is added to these containers and maintained at 1.5 to 3 cm above the soil surface for the duration of the experiment. The test compounds are applied as aqueous/acetone mixtures 50/50 v/v pipetted directly into the flood water to give the equivalent of about 0.0313 to 0.500 kg/ha of active ingredient. The treated containers are placed on greenhouse benches and cared for in accordance with conventional greenhouse procedures. Three to four weeks after treatment, the test is terminated and each container is examined and herbicidal effect rated according to the rating system provided in Example 185. The compounds evaluated are reported by compound number given in Example 185.

[4] = test system: ECHORC Watergrass (Calif.); assay: Postemergence weed control, flooded paddy (Table IV); format: in vivo, Echinochloa oryzoides; set-up: scale not given here
Description: as §2

[5] = test system: Foxtail, Green, Setaria viridis; assay: Preemergence herbicidal evaluation, SETVI; format: in vivo, (L.) Beau; details: 0.2500 kg/ha
Summary of the method: (§3)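 Values are 0–9 visual ratings of stand, vigor, malformation, size, chlorosis and overall appearance relative to a control, scored 4 to 5 weeks after treatment. Test compound in aqueous acetone was sprayed onto soil right after seeding, at rates equivalent to about 0.0156–0.500 kg per hectare.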

[6] = test system: Barnyardgrass, Echinochloa crus-galli; assay: Preemergence herbicidal evaluation, ECHCG; format: in vivo, (L.) Beau; details: 0.2500 kg/ha
Summary of the method: as §3

[7] = test system: CYPSE Flatsedge; assay: Postemergence weed control, flooded paddy (Table IV); format: in vivo, Cyperus serotinus; set-up: scale not given here
Description: as §2

[8] = test system: Velvetleaf, Abutilon theophrasti; assay: Postemergence herbicidal evaluation, ABUTH; format: in vivo, Medic.; details: 0.2500 kg/ha
Summary of the method: as §1

[9] = test system: Wheat, Winter, cv Riband, Triticum aestivum; assay: Preemergence herbicidal evaluation, TRZAWR; format: in vivo; details: 0.2500 kg/ha
Summary of the method: as §3

[10] = test system: Lambsquarters, Common, Chenopodium album; assay: Postemergence herbicidal evaluation, CHEAL; format: in vivo, L.; details: 0.2500 kg/ha
Summary of the method: as §1

[11] = test system: Soybean, Williams, Glycine max; assay: Postemergence herbicidal evaluation, GLXMAW; format: in vivo, (L.) Merr. cv Williams; details: 0.2500 kg/ha
Summary of the method: as §1

[12] = test system: ORYSAT Rice, Tebonnet; assay: Tolerance of transplanted rice to post-transplant application (Table III); format: in vivo, Oryza sativa; set-up: scale not given here; details: crop tolerance
Experimental: The tolerance of transplanted rice to post-transplanted herbicide applications is determined as follows: two ten-day-old rice seedlings (cv. Tebonnet) are transplanted into silt loam soil in 32 oz. plastic containers with a diameter of 10.5 cm and no drainage holes. After transplanting, the containers are flooded and the water level is maintained at 1.5 to 3 cm above the soil surface. Three days after transplanting, the flooded soil surface of the containers is treated with the selected aqueous/acetone 50/50 v/v mixture containing the test compounds to provide the equivalent of about 0.0313 to 0.500 kg/ha of active ingredient. The treated containers are placed on greenhouse benches, watered such that the water level is maintained as stated above, and cared for in accordance with conventional greenhouse procedures. Three to four weeks after treatment, the test is terminated and each container is examined and herbicidal effect rated according to the rating system provided in Example 185. The compounds evaluated are reported by compound number given in Example 185.

SMILES	herbicide rating (0-9) [1]	herbicidal effect rating ([2]; 0.1250 kg/ha)	herbicidal effect rating ([2]; 0.2500 kg/ha)	herbicidal effect rating ([2]; 0.5000 kg/ha)	herbicidal effect rating ([3]; 0.0625 kg/ha)	herbicidal effect rating ([3]; 0.1250 kg/ha)	herbicidal effect rating ([3]; 0.2500 kg/ha)	herbicidal effect rating ([3]; 0.5000 kg/ha)	herbicidal effect rating ([4]; 0.1250 kg/ha)	herbicidal effect rating ([4]; 0.2500 kg/ha)	herbicidal effect rating ([4]; 0.5000 kg/ha)	herbicide rating (0-9) [5]	herbicide rating (0-9) [6]	herbicidal effect rating ([7]; 0.5000 kg/ha)	herbicide rating (0-9) [8]	herbicide rating (0-9) [9]	herbicide rating (0-9) [11]	herbicidal effect rating ([12]; 0.0625 kg/ha)	herbicidal effect rating ([12]; 0.1250 kg/ha)	herbicidal effect rating ([12]; 0.2500 kg/ha)	further results
COC(=O)COc1cc(C)c(C)cc1-c1nsc2ccc(-n3c(=O)cc(C(F)(F)F)n(C)c3=O)cc12 [Compound 12, Methyl {{6-{5-[3,6-dihydro-3-methyl-4-(trifluoromethyl)-2,6-dioxo-1(2H)-pyrimidinyl]-1,2-benzisothiazol-3-yl}-3,4-xylyl}oxy}acetate]	9.0	9.0	9.0	9.0	7.0	8.0	7.0	7.0	6.0	9.0	9.0	9.0	6.0	2.0	9.0	5.0	9.0	7.0	7.0	8.0	herbicidal effect rating ([3]; 0.0313 kg/ha): 6.0; herbicide rating (0-9) [10]: 9.0; herbicidal effect rating ([12]; 0.0313 kg/ha): 4.0; herbicidal effect rating ([12]; 0.5000 kg/ha): 9.0
Cc1cc(O)c(-c2nsc3ccc(-n4c(=O)cc(C(F)(F)F)n(C)c4=O)cc23)cc1C [Compound 11, 3-[3-(6-Hydroxy-3,4-xylyl)-1,2-benzisothiazol-5-yl]-1-methyl-6-(trifluoromethyl)-2,4(1H,3H)-pyrimidinedione]	2.0	9.0	9.0	9.0	2.0	2.0	2.0	7.0	2.0	4.0	7.0	9.0	0.0	0.0	9.0	4.0	6.0	2.0	2.0	3.0	herbicidal effect rating ([7]; 0.1250 kg/ha): 0.0; herbicidal effect rating ([7]; 0.2500 kg/ha): 0.0; herbicide rating (0-9) [10]: 9.0; herbicidal effect rating ([12]; 0.5000 kg/ha): 3.0
COC(=O)C(C)Oc1cc(C)ccc1-c1nsc2ccc(-n3c(=O)cc(C(F)(F)F)n(C)c3=O)cc12 (stereo not drawn) [Compound 9, Methyl 2-{{6-{5-[3,6-dihydro-3-methyl-4-(trifluoromethyl)-2,6-dioxo-1(2H)-pyrimidinyl]-1,2-benzisothiazol-3-yl}-m-tolyl}oxy}propionate]	9.0	9.0	9.0	9.0	4.0	9.0	9.0	9.0	9.0	9.0	9.0	9.0	9.0	9.0	9.0	9.0	9.0	7.0	7.0	8.0	herbicidal effect rating ([3]; 0.0313 kg/ha): 2.0; herbicidal effect rating ([7]; 0.1250 kg/ha): 2.0; herbicidal effect rating ([7]; 0.2500 kg/ha): 7.0; herbicidal effect rating ([12]; 0.0313 kg/ha): 6.0; herbicidal effect rating ([12]; 0.5000 kg/ha): 9.0
COC(=O)C(C)Oc1cc(C)c(C)cc1-c1nsc2ccc(-n3c(=O)cc(C(F)(F)F)n(C)c3=O)cc12 (stereo not drawn) [Compound 13, Methyl 2-{{6-{5-[3,6-dihydro-3-methyl-4-(trifluoromethyl)-2,6-dioxo-1(2H)-pyrimidinyl]-1,2-benzisothiazol-3-yl}-3,4-xylyl}oxy}propionate]	8.0	9.0	9.0	9.0	2.0	7.0	7.0	7.0	6.0	8.0	9.0	9.0	9.0	2.0	9.0	4.0	8.5	6.0	7.0	7.0	herbicidal effect rating ([3]; 0.0313 kg/ha): 0.0; herbicidal effect rating ([7]; 0.1250 kg/ha): 2.0; herbicidal effect rating ([7]; 0.2500 kg/ha): 4.0; herbicide rating (0-9) [10]: 9.0; herbicidal effect rating ([12]; 0.0313 kg/ha): 4.0; herbicidal effect rating ([12]; 0.5000 kg/ha): 9.0
